Laboratory results from ChEMBL document CHEMBL6096640, “Discovery of novel thiosemicarbazone-acridine targeting butyrylcholinesterase with antioxidant, metal complexing and neuroprotector abilities as potential treatment of Alzheimer's disease: In vitro, in vivo, and in silico studies” (Eur J Med Chem, 2025).
Active and inactive are the calls of the source. The rule behind the calls is not given here.

Columns and labels:
Cholinesterase [1] = molecular target: T1, Cholinesterase (Equus caballus, UniProt P81908); assay: Competitive inhibition of equine serum BChE using butyrylthiocholine iodide as substrate preincubated for 10 mins followed by substrate addition by Lineweaver-Burk plot analysis
Cholinesterase [2] = molecular target: T1, Cholinesterase; assay: Non-competitive inhibition of equine serum BChE using butyrylthiocholine iodide as substrate preincubated for 10 mins followed by substrate addition by Lineweaver-Burk plot analysis
Acetylcholinesterase [3] = molecular target: T2, Acetylcholinesterase (Electrophorus electricus, UniProt O42275); assay: Non-competitive inhibition of electric eel AChE using acetylthiocholine iodide as substrate preincubated for 10 mins followed by substrate addition by Lineweaver-Burk plot analysis
[4] = Antioxidant activity of the compound assessed as DPPH radical scavenging activity at 100 uM incubated under light for 30 mins by spectrophotometric analysis relative to control; format: functional
[5] = molecular target: Acetylcholinesterase (Electrophorus electricus) (UniProt O42275); assay: Non-competitive inhibition of electric eel AChE using acetylthiocholine iodide as substrate assessed as decreased Vmax with constant Km by Ellman's method based Lineweaver-Burk plot analysis
[6] = molecular target: Cholinesterase (Equus caballus) (UniProt P81908); assay: Inhibition of equine serum BChE using butyrylthiocholine iodide as substrate at 10 uM preincubated for 10 mins followed by substrate addition by Ellman's method relative to control
[7] = molecular target: Acetylcholinesterase (Electrophorus electricus) (UniProt O42275); assay: Inhibition of electric eel AChE using acetylthiocholine iodide as substrate at 10 uM preincubated for 10 mins followed by substrate addition by Ellman's method relative to control
[8] = Neurotoxicity against human SH-SY5Y cells assessed as reduction in cell viability at <= 50 uM; format: toxicity, cell-based
Acetylcholinesterase [9] = molecular target: T2, Acetylcholinesterase
Description: Inhibition of electric eel AChE using acetylthiocholine iodide as substrate preincubated for 10 mins followed by substrate addition by Ellman's method

Cholinesterase [10] = molecular target: T1, Cholinesterase
Description: Inhibition of equine serum BChE using butyrylthiocholine iodide as substrate preincubated for 10 mins followed by substrate addition by Ellman's method

[11] = Antioxidant activity of the compound assessed as DPPH radical scavenging activity at 10 uM incubated under light for 30 mins by spectrophotometric analysis relative to control; format: functional
[12] = Neurotoxicity against human SH-SY5Y cells assessed as cell viability at 12.5 to 50 uM relative to control; format: toxicity, cell-based; conditions: dose 12.5-50 µM, read-out: Activity
Mus musculus [13] = assay: Antialzheimer activity against scopolamine-induced amnesia Swiss mouse model assessed as number of crossings at 1 uM, icv by open field test; format: functional, organism-based
Mus musculus [14] = assay: Antialzheimer activity against scopolamine-induced amnesia Swiss mouse model assessed as sign of innate preference for objects at 1 uM, icv by novel object recognition test; format: functional, organism-based
Mus musculus [15] = assay: Antialzheimer activity against scopolamine-induced amnesia Swiss mouse model assessed as increase in exploration time at 1 uM, icv by novel object recognition test; format: functional, organism-based
[16] = Toxicity in Swiss mouse assessed as novel […] memory at 1 uM, icv by novel object recognition test; conditions: in vivo, icv_or_intrathecal
SH-SY5Y = assay: Neuroprotective activity against H2O2-induced cell death in human SH-SY5Y cells assessed as cell viability at 3.125 to 12.5 uM preincubated for 24 hrs followed by H2O2 addition and measured after 2 hrs by MTT assay; format: functional, cell-based; conditions: dose 3.125-12.5 µM, time 26.0 hrs
in vitro = conditions: human
Description: Neurotoxicity against human SH-SY5Y cells assessed as cell viability at 50 uM relative to control

Cholinesterase [17] = molecular target: T1, Cholinesterase; assay: Competitive inhibition of equine serum BChE using butyrylthiocholine iodide as substrate at 3 uM preincubated for 10 mins followed by substrate addition by Lineweaver-Burk plot analysis
Acetylcholinesterase [18] = molecular target: T2, Acetylcholinesterase; assay: Competitive inhibition of electric eel AChE using acetylthiocholine iodide as substrate at 11 uM preincubated for 10 mins followed by substrate addition by Lineweaver-Burk plot analysis
[19] = molecular target: Acetylcholinesterase (Electrophorus electricus) (UniProt O42275); assay: Mixed-type inhibition of electric eel AchE using acetylthiocholine iodide as substrate assessed as decrease in Vmax with increase in Km preincubated for 10 mins followed by substrate addition by Lineweaver-Burk plot analysis
[20] = molecular target: Cholinesterase (Equus caballus) (UniProt P81908); assay: Mixed-type inhibition of equine serum BChE using butyrylthiocholine iodide as substrate assessed as decrease in Vmax with increase in Km preincubated for 10 mins followed by substrate addition by Lineweaver-Burk plot analysis

Sequence of Acetylcholinesterase (Electrophorus electricus) (O42275 24-633 limits assumed): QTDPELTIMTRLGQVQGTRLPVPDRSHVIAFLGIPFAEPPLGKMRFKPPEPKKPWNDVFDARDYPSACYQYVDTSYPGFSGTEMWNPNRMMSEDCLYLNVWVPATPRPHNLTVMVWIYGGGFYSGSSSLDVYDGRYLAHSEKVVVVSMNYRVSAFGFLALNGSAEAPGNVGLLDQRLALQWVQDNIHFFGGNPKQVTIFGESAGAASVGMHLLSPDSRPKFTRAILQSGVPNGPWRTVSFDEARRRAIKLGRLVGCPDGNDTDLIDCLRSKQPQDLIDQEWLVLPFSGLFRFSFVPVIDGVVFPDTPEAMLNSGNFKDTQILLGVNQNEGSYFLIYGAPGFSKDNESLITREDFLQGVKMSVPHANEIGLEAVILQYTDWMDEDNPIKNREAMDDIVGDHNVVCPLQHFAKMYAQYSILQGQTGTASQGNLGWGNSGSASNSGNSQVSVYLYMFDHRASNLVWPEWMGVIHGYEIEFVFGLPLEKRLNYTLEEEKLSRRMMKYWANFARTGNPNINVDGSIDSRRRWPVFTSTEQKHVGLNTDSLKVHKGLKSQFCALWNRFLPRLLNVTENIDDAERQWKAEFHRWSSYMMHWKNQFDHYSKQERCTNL
T2 sequence (O42275 whole entry): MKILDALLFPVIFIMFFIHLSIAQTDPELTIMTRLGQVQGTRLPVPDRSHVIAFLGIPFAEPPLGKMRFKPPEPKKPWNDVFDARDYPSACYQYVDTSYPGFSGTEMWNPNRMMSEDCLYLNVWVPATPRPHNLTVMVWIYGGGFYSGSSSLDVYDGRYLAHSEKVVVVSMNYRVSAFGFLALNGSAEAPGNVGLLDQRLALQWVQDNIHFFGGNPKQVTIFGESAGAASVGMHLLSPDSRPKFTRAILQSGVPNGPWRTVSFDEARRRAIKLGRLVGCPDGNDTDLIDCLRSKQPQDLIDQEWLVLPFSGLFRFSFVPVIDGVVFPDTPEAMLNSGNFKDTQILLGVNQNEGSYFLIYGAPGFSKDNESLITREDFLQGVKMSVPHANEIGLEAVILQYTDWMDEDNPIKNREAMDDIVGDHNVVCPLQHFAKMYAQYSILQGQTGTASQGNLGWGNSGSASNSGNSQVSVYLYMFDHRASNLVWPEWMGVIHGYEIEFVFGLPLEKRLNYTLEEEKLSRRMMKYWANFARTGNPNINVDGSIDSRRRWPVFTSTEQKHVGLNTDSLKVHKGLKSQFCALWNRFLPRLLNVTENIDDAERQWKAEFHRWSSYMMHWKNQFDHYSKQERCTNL
Sequence of Cholinesterase (Equus caballus) (P81908 whole entry): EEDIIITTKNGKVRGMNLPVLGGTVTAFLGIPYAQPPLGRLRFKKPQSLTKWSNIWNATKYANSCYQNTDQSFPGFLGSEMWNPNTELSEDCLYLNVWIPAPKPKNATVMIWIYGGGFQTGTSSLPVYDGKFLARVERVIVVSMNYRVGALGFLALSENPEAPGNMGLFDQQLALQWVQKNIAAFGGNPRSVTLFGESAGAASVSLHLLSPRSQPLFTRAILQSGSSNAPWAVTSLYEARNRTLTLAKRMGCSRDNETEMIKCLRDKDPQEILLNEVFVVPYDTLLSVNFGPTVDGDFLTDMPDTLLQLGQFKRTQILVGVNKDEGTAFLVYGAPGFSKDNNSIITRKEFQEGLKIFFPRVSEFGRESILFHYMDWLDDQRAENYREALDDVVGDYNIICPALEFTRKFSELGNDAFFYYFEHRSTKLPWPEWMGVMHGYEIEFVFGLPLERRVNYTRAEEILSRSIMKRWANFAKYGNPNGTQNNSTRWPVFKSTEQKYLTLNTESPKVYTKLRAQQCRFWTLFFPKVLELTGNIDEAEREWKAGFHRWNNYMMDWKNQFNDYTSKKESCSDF
T1 sequence (P81908 whole entry): as above

S=C(N/N=C/c1ccccc1)Nc1c2ccccc2nc2ccccc12
Ki (Cholinesterase [1]): 0.72 µM
Ki (Cholinesterase [2]): 1.68 µM
Ki (Acetylcholinesterase [3]): 1.35 µM
Activity [4]: 37.9%
inhibition [5]: Active
inhibition [6]: 83%
inhibition [7]: 87%
Activity [8]: Non-toxic
IC50 (Acetylcholinesterase [9]): 2.47 µM
IC50 (Cholinesterase [10]): 0.71 µM

S=C(N/N=C/c1ccco1)Nc1c2ccccc2nc2ccccc12
Activity [4]: 43.9%
inhibition [6]: 83%
IC50 (Acetylcholinesterase [9]): 28 µM
IC50 (Cholinesterase [10]): 4.4 µM

O=c1c(O)c(-c2ccc(O)c(O)c2)oc2cc(O)cc(O)c12
Activity [11]: 51.7%

Cc1[nH]c2ccccc2c1/C=N/NC(=S)Nc1c2ccccc2nc2ccccc12
Activity [4]: 61%
inhibition [6]: 83%
IC50 (Acetylcholinesterase [9]): 8.57 µM
IC50 (Cholinesterase [10]): 2.01 µM

Oc1cccc(/C=N/NC(=S)Nc2c3c(nc4ccccc24)CCCC3)c1
Activity [4]: 12.1%
IC50 (Cholinesterase [10]): 3.03 µM

CN(C)c1ccc(/C=N/NC(=S)Nc2c3ccccc3nc3ccccc23)cc1
inhibition [6]: 83%
IC50 (Acetylcholinesterase [9]): 7.6 µM
IC50 (Cholinesterase [10]): 1.77 µM

Cc1ccc(/C=N/NC(=S)Nc2c3ccccc3nc3ccccc23)c(O)c1
Activity [4]: 28.7%
inhibition [6]: 83%
IC50 (Acetylcholinesterase [9]): 11.3 µM
IC50 (Cholinesterase [10]): 3.19 µM

S=C(N/N=C/c1c[nH]c2ccccc12)Nc1c2ccccc2nc2ccccc12
Activity [4]: 23.8%
inhibition [6]: 83%
IC50 (Acetylcholinesterase [9]): 9.39 µM
IC50 (Cholinesterase [10]): 1.68 µM

Oc1ccc(/C=N/NC(=S)Nc2c3ccccc3nc3ccccc23)cc1
inhibition [6]: 83%
IC50 (Acetylcholinesterase [9]): 11.5 µM
IC50 (Cholinesterase [10]): 1.73 µM

S=C(N/N=C/c1ccc(Cl)cc1Cl)Nc1c2ccccc2nc2ccccc12
inhibition [6]: 83%
Activity [8]: Non-toxic
IC50 (Acetylcholinesterase [9]): 6.11 µM
IC50 (Cholinesterase [10]): 1.06 µM

S=C(N/N=C/c1ccc(Cl)cc1)Nc1c2ccccc2nc2ccccc12
inhibition [6]: 83%
IC50 (Acetylcholinesterase [9]): 10.1 µM
IC50 (Cholinesterase [10]): 2.19 µM

COc1ccc(/C=N/NC(=S)Nc2c3ccccc3nc3ccccc23)cc1
inhibition [6]: 83%
Activity [8]: Non-toxic
IC50 (Acetylcholinesterase [9]): 6.2 µM
IC50 (Cholinesterase [10]): 1.04 µM

S=C(N/N=C/c1cccs1)Nc1c2ccccc2nc2ccccc12
Activity [4]: 41.5%
inhibition [6]: 83%
IC50 (Acetylcholinesterase [9]): 34.6 µM
IC50 (Cholinesterase [10]): 2.45 µM

Oc1ccccc1/C=N/NC(=S)Nc1c2ccccc2nc2ccccc12
Activity [4]: 15.8%
inhibition [6]: 83%
IC50 (Acetylcholinesterase [9]): 10.8 µM
IC50 (Cholinesterase [10]): 3.13 µM

Oc1cccc(/C=N/NC(=S)Nc2c3ccccc3nc3ccccc23)c1
inhibition [6]: 83%
IC50 (Acetylcholinesterase [9]): 22 µM
IC50 (Cholinesterase [10]): 2.28 µM

S=C(N/N=C/c1ccc(Br)cc1)Nc1c2ccccc2nc2ccccc12
inhibition [6]: 83%
IC50 (Acetylcholinesterase [9]): 9.79 µM
IC50 (Cholinesterase [10]): 3.18 µM

Fc1ccc(/C=N/NC(=S)Nc2c3ccccc3nc3ccccc23)cc1
Activity [4]: 44.3%
inhibition [6]: 83%
viability at 50 µM [12]: ≤ 70%
IC50 (Acetylcholinesterase [9]): 12.8 µM
IC50 (Cholinesterase [10]): 1.35 µM

COc1ccc(/C=N/NC(=S)Nc2c3ccccc3nc3ccccc23)cc1O
Activity [4]: 41.2%
inhibition [6]: 83%
IC50 (Acetylcholinesterase [9]): 43.3 µM
IC50 (Cholinesterase [10]): 3.3 µM

S=C(N/N=C/c1cccnc1)Nc1c2ccccc2nc2ccccc12
Activity [4]: 15.5%
inhibition [6]: 83%

CC(C)(C)c1cc(/C=N/NC(=S)Nc2c3ccccc3nc3ccccc23)cc(C(C)(C)C)c1O
Activity [4]: 69%
Activity (Mus musculus [13]): inactive
Activity (Mus musculus [14]): inactive
Activity (Mus musculus [15]): Active
Activity [16]: Toxic
inhibition [6]: 83%
viability at 50 µM [12]: ≤ 70%
Activity (SH-SY5Y): Active
IC50 (Acetylcholinesterase [9]): 10.5 µM
IC50 (Cholinesterase [10]): 1.15 µM
viability at 50 µM (in vitro; SH-SY5Y cells): 90%

O=[N+]([O-])c1ccc(/C=N/NC(=S)Nc2c3ccccc3nc3ccccc23)cc1
Ki (Cholinesterase [1]): 0.2 µM
Ki (Cholinesterase [2]): 0.53 µM
Ki (Acetylcholinesterase [3]): 2.97 µM
inhibition [5]: Active
inhibition [6]: 83%
Activity [8]: Non-toxic
IC50 (Acetylcholinesterase [9]): 8.64 µM
IC50 (Cholinesterase [10]): 0.89 µM

COc1cc2c(cc1OC)C(=O)C(CC1CCN(Cc3ccccc3)CC1)C2 (stereo not drawn) [DONEPEZIL]
viability at 50 µM (in vitro; sh-sy5y): 80%

Cc1ccc(/C=N/NC(=S)Nc2c3ccccc3nc3ccccc23)cc1
inhibition [6]: 83%
IC50 (Acetylcholinesterase [9]): 2.78 µM
IC50 (Cholinesterase [10]): 1.54 µM

S=C(N/N=C/c1ccccc1)Nc1c2c(nc3ccccc13)CCCC2
Ki (Cholinesterase [2]): 3.63 µM
Ki (Acetylcholinesterase [3]): 9.82 µM
Ki (Cholinesterase [17]): 1.41 µM
Ki (Acetylcholinesterase [18]): 1.66 µM
Activity [4]: 32.2%
Activity [19]: Active
Activity [20]: Active
IC50 (Acetylcholinesterase [9]): 13.6 µM
IC50 (Cholinesterase [10]): 5.38 µM
